Activity calls are given as the source filed them. The rule behind the calls is not given here.
How the values were obtained:
SK-MEL-28 [1] = experiment: Induction of apoptosis in human SK-MEL-28 cells assessed as cell shrinkage at 2.08 to 8.32 uM incubated for 48 hrs by phase contrast microscopy; assay type: functional, cell-based; conditions: dose 2.08-8.32 µM, DDE = dose-dependent effect
SK-MEL-28 [2] = experiment: Anti-migration activity in human SK-MEL-28 cells assessed as distance travelled at 8.32 uM incubated for 48 hrs by wound healing assay based phase contrast microscopy; assay type: functional
Calf thymus DNA [3] = experiment: Binding affinity to calf thymus DNA assessed as decrease in viscosity at 15 uM by ethidium bromide-Hoechst 33342 staining based analysis; assay type: nucleic-acid assay; conditions: Bos taurus
Calf thymus DNA [4] = experiment: Binding affinity to calf thymus DNA assessed as hyperchromicity at 10 to 20 uM by UV-Vis spectroscopic analysis; assay type: nucleic-acid assay; conditions: Bos taurus; dose 10-20 µM
[5] = target: DNA topoisomerase 2-alpha (Homo sapiens) (UniProt P11388); experiment: Inhibition of DNA topoisomerase 2 (unknown origin) assessed as reduction in decatenation using kDNA as substrate incubated for 30 mins measured by agarose gel electrophoresis method
SK-MEL-28 [6] = experiment: Induction of apoptosis in human SK-MEL-28 cells assessed as chromatin condensation at 2.08 to 8.32 uM incubated for 48 hrs by AO/EB staining based fluorescence microscopy; assay type: functional, cell-based; conditions: dose 2.08-8.32 µM, DDE = dose-dependent effect
SK-MEL-28 [7] = experiment: Inhibition of cell migration in human SK-MEL-28 cells at 2.08 to 8.32 uM incubated for 48 hrs by wound healing assay based phase contrast microscopy; assay type: functional; conditions: dose 2.08-8.32 µM, DDE = dose-dependent effect
SK-MEL-28 [8] = experiment: Anti-migration activity in human SK-MEL-28 cells assessed as distance travelled at 8.32 uM by wound healing assay based phase contrast microscopy; assay type: functional
SK-MEL-28 [9] = experiment: Anti-migration activity in human SK-MEL-28 cells assessed as distance travelled at 2.08 uM incubated for 48 hrs by wound healing assay based phase contrast microscopy; assay type: functional
SK-MEL-28 [10] = experiment: Anti-migration activity in human SK-MEL-28 cells assessed as distance travelled at 4.16 uM incubated for 48 hrs by wound healing assay based phase contrast microscopy; assay type: functional
SK-MEL-28 [11] = experiment: Induction of apoptosis in human SK-MEL-28 cells assessed as necrotic cells at 2.08 to 8.32 uM incubated for 48 hrs by Annexin V-FITC/propidium iodide staining based flow cytometric analysis; assay type: functional; conditions: dose 2.08-8.32 µM
SK-MEL-28 [12] = experiment: Induction of apoptosis in human SK-MEL-28 cells assessed as nuclear fragmentation at 2.08 to 8.32 uM incubated for 48 hrs by DAPI staining based fluorescence microscopic analysis; assay type: functional, cell-based; conditions: dose 2.08-8.32 µM
SK-MEL-28 [13] = experiment: Anti-migration activity in human SK-MEL-28 cells assessed as distance travelled at 4.16 uM by wound healing assay based phase contrast microscopy; assay type: functional
DNA topoisomerase 1 = target: T1, DNA topoisomerase 1 (Homo sapiens, UniProt P11387); experiment: Inhibition of human DNA topoisomerase 1 assessed as reduction in pBR322 DNA relaxation incubated for 1 hrs measured by agarose gel electrophoresis method
T1 sequence (P11387 whole entry): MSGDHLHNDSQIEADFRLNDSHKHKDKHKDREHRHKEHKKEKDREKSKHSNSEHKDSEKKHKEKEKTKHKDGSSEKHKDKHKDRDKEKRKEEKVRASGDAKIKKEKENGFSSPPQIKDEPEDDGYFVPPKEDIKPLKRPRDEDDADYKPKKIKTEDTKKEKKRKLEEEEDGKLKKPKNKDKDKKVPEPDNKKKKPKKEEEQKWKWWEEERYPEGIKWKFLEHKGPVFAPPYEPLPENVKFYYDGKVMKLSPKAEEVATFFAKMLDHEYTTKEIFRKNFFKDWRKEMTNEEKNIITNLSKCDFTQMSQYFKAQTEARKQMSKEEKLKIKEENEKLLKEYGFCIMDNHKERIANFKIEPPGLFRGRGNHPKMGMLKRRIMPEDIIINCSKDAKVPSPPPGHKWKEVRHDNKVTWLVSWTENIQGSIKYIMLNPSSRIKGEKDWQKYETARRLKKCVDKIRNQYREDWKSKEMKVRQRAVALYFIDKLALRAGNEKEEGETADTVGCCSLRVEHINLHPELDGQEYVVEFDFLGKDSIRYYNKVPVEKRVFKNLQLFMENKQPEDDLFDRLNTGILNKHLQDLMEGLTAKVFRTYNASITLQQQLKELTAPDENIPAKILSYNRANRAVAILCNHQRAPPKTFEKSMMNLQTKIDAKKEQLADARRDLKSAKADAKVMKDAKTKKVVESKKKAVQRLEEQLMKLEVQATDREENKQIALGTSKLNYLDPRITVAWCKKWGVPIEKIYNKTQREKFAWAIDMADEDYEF

SK-MEL-28 [14] = experiment: Induction of apoptosis in human SK-MEL-28 cells assessed as chromatin condensation at 2.08 to 8.32 uM incubated for 48 hrs by DAPI staining based fluorescence microscopic analysis; assay type: functional, cell-based; conditions: dose 2.08-8.32 µM
SK-MEL-28 [15] = experiment: Induction of intracellular ROS generation in human SK-MEL-28 cells at 2.08 to 8.32 uM incubated for 48 hrs by […] fluorescence microscopic analysis; assay type: functional, cell-based; conditions: dose 2.08-8.32 µM, DDE = dose-dependent effect
HT-29 = experiment: Cytotoxicity against human HT-29 cells assessed as cell growth inhibition incubated for 48 hrs by MTT assay; assay type: functional, cell-based; conditions: HT-29, 48 h
MCF7 = experiment: Cytotoxicity against human MCF7 cells assessed as cell growth inhibition incubated for 48 hrs by MTT assay; assay type: functional, cell-based; conditions: MCF7, 48 h
SK-MEL-28 [16] = experiment: Anti-migration activity in human SK-MEL-28 cells assessed as distance travelled at 2.08 uM by wound healing assay based phase contrast microscopy; assay type: functional
HCT-116 = experiment: Cytotoxicity against human HCT-116 cells assessed as cell growth inhibition incubated for 48 hrs by MTT assay; assay type: functional, cell-based; conditions: HCT-116, 48 h
SK-MEL-28 [17] = experiment: Induction of apoptosis in human SK-MEL-28 cells assessed as reduction on viable cells at 2.08 to 8.32 uM incubated for 48 hrs by phase contrast microscopy; assay type: functional, cell-based; conditions: dose 2.08-8.32 µM, DDE = dose-dependent effect
SK-MEL-28 [18] = experiment: Induction of apoptosis in human SK-MEL-28 cells assessed as changes in cell morphology at 2.08 to 8.32 uM incubated for 48 hrs by phase contrast microscopy; assay type: functional, cell-based; conditions: dose 2.08-8.32 µM
SK-MEL-28 [19] = experiment: Induction of apoptosis in human SK-MEL-28 cells assessed as cell membrane disruption at 2.08 to 8.32 uM incubated for 48 hrs by phase contrast microscopy; assay type: functional, cell-based; conditions: dose 2.08-8.32 µM, DDE = dose-dependent effect
A549 = experiment: Cytotoxicity against human A549 cells assessed as cell growth inhibition incubated for 48 hrs by MTT assay; assay type: functional, cell-based; conditions: A549, 48 h
SK-MEL-28 [20] = experiment: Induction of apoptosis in human SK-MEL-28 cells assessed as changes in nuclear morphology at 2.08 to 8.32 uM incubated for 48 hrs by DAPI staining based fluorescence microscopic analysis; assay type: functional, cell-based; conditions: dose 2.08-8.32 µM
[21] = target: T2, DNA topoisomerase 1 (Homo sapiens) (UniProt P11387); experiment: Inhibition of DNA topoisomerase 1 (unknown origin) assessed as reduction in pBR322 DNA relaxation at 10 uM incubated for 30 mins measured by agarose gel electrophoresis method relative to control
T2 sequence (whole entry): T1 sequence (P11387 whole entry)

SK-MEL-28 [22] = experiment: Induction of apoptosis in human SK-MEL-28 cells assessed as apoptotic body fragmentation at 2.08 to 8.32 uM incubated for 48 hrs by AO/EB staining based fluorescence microscopy; assay type: functional, cell-based; conditions: dose 2.08-8.32 µM, DDE = dose-dependent effect
Calf thymus DNA [23] = experiment: Binding affinity to calf thymus DNA assessed as hyperchromicity at 10 uM by circular dichroism spectroscopy; assay type: nucleic-acid assay; conditions: Bos taurus
SK-MEL-28 [24] = experiment: Inhibition of colony formation in human SK-MEL-28 cells assessed as decrease in colonies at 2.08 to 8.32 uM incubated for 7 days by crystal violet staining based assay; assay type: functional, cell-based; conditions: dose 2.08-8.32 µM, time 7.0 day, DDE = dose-dependent effect
SK-MEL-28 [25] = experiment: Induction of apoptosis in human SK-MEL-28 cells assessed as cell shrinkage at 2.08 to 8.32 uM incubated for 48 hrs by AO/EB staining based fluorescence microscopy; assay type: functional; conditions: dose 2.08-8.32 µM, DDE = dose-dependent effect
[26] = Cytotoxicity against rat NRK cells assessed as cell growth inhibition incubated for 48 hrs by MTT assay; assay type: toxicity, cell-based
SK-MEL-28 [27] = experiment: Cytotoxicity against human SK-MEL-28 cells assessed as cell growth inhibition incubated for 48 hrs by MTT assay; assay type: functional, cell-based; conditions: SK-MEL-28, 48 h
SK-MEL-28 [28] = experiment: Induction of apoptosis in human SK-MEL-28 cells assessed as membrane blebbing at 2.08 to 8.32 uM incubated for 48 hrs by AO/EB staining based fluorescence microscopy; assay type: functional, cell-based; conditions: dose 2.08-8.32 µM, DDE = dose-dependent effect
SK-MEL-28 [29] = experiment: Induction of apoptosis in human SK-MEL-28 cells assessed as late apoptotic cells measured upto 4.16 uM incubated for 48 hrs by Annexin V-FITC/propidium iodide staining based flow cytometric analysis; assay type: functional, cell-based

Sequence of DNA topoisomerase 2-alpha (Homo sapiens) (P11388 whole entry): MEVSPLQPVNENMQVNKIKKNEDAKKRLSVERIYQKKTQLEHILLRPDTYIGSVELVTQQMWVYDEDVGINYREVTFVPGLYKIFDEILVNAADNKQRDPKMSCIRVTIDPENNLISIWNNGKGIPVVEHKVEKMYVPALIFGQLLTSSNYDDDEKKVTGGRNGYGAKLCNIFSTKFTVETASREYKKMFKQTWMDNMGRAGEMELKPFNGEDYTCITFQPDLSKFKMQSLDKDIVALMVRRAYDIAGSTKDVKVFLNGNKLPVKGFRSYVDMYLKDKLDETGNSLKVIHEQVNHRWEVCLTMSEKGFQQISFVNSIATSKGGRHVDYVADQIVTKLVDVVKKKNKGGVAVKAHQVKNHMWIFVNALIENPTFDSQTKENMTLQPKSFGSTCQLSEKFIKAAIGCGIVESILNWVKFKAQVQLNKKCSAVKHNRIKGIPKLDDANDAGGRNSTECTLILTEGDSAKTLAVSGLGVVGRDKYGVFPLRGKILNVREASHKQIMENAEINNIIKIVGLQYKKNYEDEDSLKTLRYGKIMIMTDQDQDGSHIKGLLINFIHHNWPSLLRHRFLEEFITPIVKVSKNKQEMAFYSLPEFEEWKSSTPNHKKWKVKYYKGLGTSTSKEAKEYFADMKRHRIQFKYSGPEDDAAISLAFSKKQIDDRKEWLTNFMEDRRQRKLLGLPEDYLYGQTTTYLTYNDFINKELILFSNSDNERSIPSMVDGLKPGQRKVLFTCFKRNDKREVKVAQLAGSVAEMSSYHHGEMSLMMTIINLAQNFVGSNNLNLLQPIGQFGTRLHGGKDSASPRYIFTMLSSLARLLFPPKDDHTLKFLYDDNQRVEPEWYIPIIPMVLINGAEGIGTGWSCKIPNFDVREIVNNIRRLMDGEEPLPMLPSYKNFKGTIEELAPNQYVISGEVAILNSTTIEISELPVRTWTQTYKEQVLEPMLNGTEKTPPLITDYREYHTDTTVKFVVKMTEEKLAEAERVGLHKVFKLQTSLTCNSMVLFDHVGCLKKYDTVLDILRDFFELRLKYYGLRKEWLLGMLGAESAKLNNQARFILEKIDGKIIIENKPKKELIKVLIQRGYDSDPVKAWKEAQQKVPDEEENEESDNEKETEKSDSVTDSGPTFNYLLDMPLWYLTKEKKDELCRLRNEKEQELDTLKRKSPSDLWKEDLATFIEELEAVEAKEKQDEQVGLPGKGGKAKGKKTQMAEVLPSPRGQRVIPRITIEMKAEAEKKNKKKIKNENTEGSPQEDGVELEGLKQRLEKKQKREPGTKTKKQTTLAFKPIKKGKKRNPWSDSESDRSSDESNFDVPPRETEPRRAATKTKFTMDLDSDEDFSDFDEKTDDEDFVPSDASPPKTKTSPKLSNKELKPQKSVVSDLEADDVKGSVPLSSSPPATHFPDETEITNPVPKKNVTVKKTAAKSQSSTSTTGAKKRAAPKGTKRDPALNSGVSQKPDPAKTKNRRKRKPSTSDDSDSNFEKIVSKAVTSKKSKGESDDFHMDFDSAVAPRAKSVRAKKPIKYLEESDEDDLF

- Activity (Calf thymus DNA [3]): Active
- Activity (Calf thymus DNA [4]): Active
- inhibition [5]: Active
- IC50 (DNA topoisomerase 1): 34 µM
- inhibition [21]: 17%
- Activity (Calf thymus DNA [23]): Active
SMILES: Cc1ccc(C/N=C2\NC(=O)/C(=C3\CCNC(=O)c4[nH]ccc43)S2)cc1
- Activity (SK-MEL-28 [1]): Dde
- Activity (SK-MEL-28 [2]): 573.08 um
- Activity (SK-MEL-28 [6]): Dde
- inhibition (SK-MEL-28 [7]): Dde
- Activity (SK-MEL-28 [8]): 798.09 um
- Activity (SK-MEL-28 [9]): 434.44 um
- Activity (SK-MEL-28 [10]): 568.42 um
- Activity (SK-MEL-28 [11]): 4.84%
- Activity (SK-MEL-28 [12]): Active
- Activity (SK-MEL-28 [13]): 736.33 um
- Activity (SK-MEL-28 [14]): Active
- Activity (SK-MEL-28 [15]): Dde
- IC50 (HT-29): 6.83 µM
- IC50 (MCF7): 8.15 µM
- Activity (SK-MEL-28 [16]): 670 um
- IC50 (HCT-116): 4.76 µM
- Activity (SK-MEL-28 [17]): Dde
- Activity (SK-MEL-28 [18]): Active
- Activity (SK-MEL-28 [19]): Dde
- IC50 (A549): 9.08 µM
- Activity (SK-MEL-28 [20]): Active
- Activity (SK-MEL-28 [22]): Dde
- inhibition (SK-MEL-28 [24]): Dde
- Activity (SK-MEL-28 [25]): Dde
- IC50 at 48 h [26]: 41.9 µM
- IC50 (SK-MEL-28 [27]): 4.15 µM
- Activity (SK-MEL-28 [28]): Dde
- Activity (SK-MEL-28 [29]): Active
